In ChEMBL document CHEMBL1201862, “PubChem BioAssay data set” (2004):
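Following 48 hours of exposure in 96-well plates, responses at five concentrations were used to interpolate endpoints linearly. GI50 marks 50% less growth.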 Active and inactive are the calls of the source. Cut-off read from the data, not from the text of the source: active = GI50 up to about 1.1 µM and inactive = higher.

What was measured:
Experiment in all cases: NCI-60 cell line screen, 48 h
[1] = tested on: EKVX
[2] = tested on: MDA-MB-435
[3] = tested on: T47D
[4] = tested on: HOP-62
[5] = tested on: BT-549
[6] = tested on: OVCAR-5
[7] = tested on: HT-29
[8] = tested on: KM12
[9] = tested on: UACC-62
[10] = tested on: MOLT-4
[11] = tested on: 786-0
[12] = tested on: SR
[13] = tested on: OVCAR-3
[14] = tested on: OVCAR-8
[15] = tested on: NCI-H23
[16] = tested on: COLO 205
[17] = tested on: NCI/ADR-RES
[18] = tested on: CCRF-CEM
[19] = tested on: RXF 393
[20] = tested on: LOX IMVI

| Compound | GI50 [1] | GI50 [2] | GI50 [3] | GI50 [4] | GI50 [5] | GI50 [6] | GI50 [7] | GI50 [8] | GI50 [9] | GI50 [10] | GI50 [11] | GI50 [12] | GI50 [13] | GI50 [14] | GI50 [15] | GI50 [16] | GI50 [17] | GI50 [18] | GI50 [19] | GI50 [20] |
| --- | --- | --- | --- | --- | --- | --- | --- | --- | --- | --- | --- | --- | --- | --- | --- | --- | --- | --- | --- | --- |
| C=CCN1C[C@@H](C)N([C@@H](c2ccccc2)c2ccc(C(=O)N(CC)CC)cc2)C[C@@H]1C | > 100 µM (inactive) | > 100 µM (inactive) | 65.8 µM (inactive) | > 100 µM (inactive) | > 100 µM (inactive) | > 100 µM (inactive) | > 100 µM (inactive) | > 100 µM (inactive) | > 100 µM (inactive) | 33.3 µM (inactive) | > 100 µM (inactive) | > 100 µM (inactive) | > 100 µM (inactive) | > 100 µM (inactive) | > 100 µM (inactive) | > 100 µM (inactive) | > 100 µM (inactive) |  |  |  |
| Oc1ccc2ccccc2c1-c1nnc(CCCCCCCCc2nnc(-c3c(O)ccc4ccccc34)o2)o1 | 4.05 µM (inactive) | 4.24 µM (inactive) | 4 µM (inactive) | 1.59 µM (inactive) | 23.1 µM (inactive) | 6.32 µM (inactive) | 13.4 µM (inactive) | 27.2 µM (inactive) | 7.64 µM (inactive) | 0.449 µM (active) | 1.1 µM (active) |  | 0.314 µM (active) | 2.18 µM (inactive) | 5.21 µM (inactive) | 15.3 µM (inactive) | 1.44 µM (inactive) | 0.448 µM (active) | 3.48 µM (inactive) | 1.01 µM (active) |
| O=c1[nH]ncc2[nH]c3c(c12)CCCc1ccccc1-3 | 4.92 µM (inactive) | 25.7 µM (inactive) | 46.9 µM (inactive) | 67 µM (inactive) | 32.9 µM (inactive) | 43.4 µM (inactive) | 31.1 µM (inactive) | 37.4 µM (inactive) | 23.7 µM (inactive) | 17.5 µM (inactive) | 33 µM (inactive) |  | 48.4 µM (inactive) | 53.6 µM (inactive) | 40.6 µM (inactive) | 20.5 µM (inactive) | 37.9 µM (inactive) | 39.9 µM (inactive) | 15.1 µM (inactive) | 44.3 µM (inactive) |
| CC(=O)[C@]1(O)Cc2c(O)c3c(c(O)c2C(OC2OC(C)C(O)C(O)C2F)C1)C(=O)c1ccccc1C3=O (stereo partly specified) | 0.61 µM (active) | 0.371 µM (active) | 0.0395 µM (active) | < 0.0189 µM (active) | 0.358 µM (active) | 0.125 µM (active) | 0.109 µM (active) | 0.158 µM (active) | 0.0791 µM (active) | < 0.01 µM (active) | 0.0288 µM (active) |  | 0.568 µM (active) | 0.0238 µM (active) | 0.0371 µM (active) | 0.259 µM (active) | 0.318 µM (active) | < 0.0141 µM (active) | 0.624 µM (active) | 0.0713 µM (active) |
| Cc1ccc2c(=O)cc(Cc3cccs3)[nH]c2n1 | > 100 µM (inactive) | > 100 µM (inactive) | > 100 µM (inactive) | > 100 µM (inactive) | > 100 µM (inactive) | > 100 µM (inactive) | > 100 µM (inactive) | > 100 µM (inactive) | > 100 µM (inactive) | > 100 µM (inactive) | > 100 µM (inactive) |  | > 100 µM (inactive) | > 100 µM (inactive) | > 100 µM (inactive) | > 100 µM (inactive) | > 100 µM (inactive) | > 100 µM (inactive) | > 100 µM (inactive) | > 100 µM (inactive) |
| CC(C)(C)C1CCC(=O)/C(=C/CC2CC(=O)N(c3ccccc3)C(=O)C2)C1 (stereo unspecified) | 26 µM (inactive) | 23.8 µM (inactive) | 21.8 µM (inactive) | 30.2 µM (inactive) | 20.4 µM (inactive) | 17.4 µM (inactive) | 19.8 µM (inactive) | 18.5 µM (inactive) | 14.5 µM (inactive) | 34.1 µM (inactive) | 19.8 µM (inactive) | 10.3 µM (inactive) | 23.1 µM (inactive) | 19.8 µM (inactive) | 17.8 µM (inactive) | 20.8 µM (inactive) | 17.8 µM (inactive) |  |  | 13.7 µM (inactive) |
